Test results as given in patent US8093226B2, “Cytostatic 7-deazapurine nucleosides” (Institute of Organic Chemistry and Biochemistry of the …, priority 2008, dated 2012).

How the values were obtained:
Format in all cases: cell-based
[1] = test system: A549; assay: Test A: Cytostatic Cell Culture Assay (GI50), A549; conditions: Homo sapiens, 120 h; A549 cells, 5 days, SRB; read-out: G150 Lung A549
From the text: (§1) Test A: Cytostatic Cell Culture Assay (GI50)
(§2) This assay is based on quantification of cell counts by a calorimetric detection of the cell associated proteins. The assay relies on the ability of sulforhodamine B (SRB) to bind to protein components of cells that have been fixed to tissue-culture plates by trichloroacetic acid (TCA). SRB is a bright-pink aminoxanthene dye with two sulfonic groups that bind to basic amino-acid residues under mild acidic conditions, and dissociate under basic conditions. As the binding of SRB is stoichiometric, the amount of dye extracted from stained cells is directly proportional to the cell mass.
(§3) Cell lines: All cell lines are obtained from ATCC (Manassas, Va.). Cultivation media containing Glutanax, and trypsin are purchased from Invitrogen (Carlsbad, Calif.). Doxorubicin, Clofarabine, TCA and SRB are from Sigma-Aldrich (St. Louis, Mo.). Gemcitabine is obtained from Moravek Biochemicals (Brea, Calif.)
(§4) • 1. Trypsinize the sub-confluent cells, count them, and adjust the cell concentrations according to the cell counts listed in Table 1. • 2. Distribute the cells into the 96-well plates in 150 μL of media. Incubate the plates overnight in humidified CO2 incubator at 37° C. • 3. Fix one plate of each cell line with TCA. Discard the cultivation media from the plates by flicking them gently and add 100 μL cold 10% (vol/vol) TCA to each well. Incubate the plates at 4 degree refrigerator for 1 hour. Discard TCA from the plates by flicking them gently. Rinse plates four times in a washing basin containing tap water. Store the plates at room temperature. These plates represent cell counts on day zero. • 4. Prepare a set of medium solutions containing various concentrations of tested compounds by making 5-fold serial dilutions in 96-well plate. Add 50 μL of the diluted compounds per well. Include controls with untreated cells and cells treated with doxorubicin, clofarabine and gemcitabine. • 5. Incubate the plates for 5 days at 37° C. • 6. Fix the plates with TCA. Discard the cultivation media from the plates by flicking them gently and add 100 μL cold 10% (vol/vol) TCA to each well. Incubate the plates at 4 degree refrigerator for 1 hour. Discard TCA from the plates by flicking them gently. Rinse plates four times in a washing basin containing tap water. • 7. Remove excess water by tapping the plates face down, gently on a paper towel. Allow the plates to air-dry at room temperature. • 8. Add 100 μL of 0.057% SRB solution in 1% (vol/vol) acetic acid to each well of the plates fixed with TCA on day zero and five. Leave at room temperature for 30 minutes. • 9. Flick the plates gently to discard SRB. Rinse the plates four times with 1% (vol/vol) Acetic Acid. • 10. Store the plates at 370 incubator to facilitate faster drying. • 11. Once the plates are completely dry, add 200 μL of 10 mM Tris base solution (pH 10.5) to each well. Leave at room temperature for 30 minutes for SRB to solubilize. • 12. Measure the OD at 500 nm in a microplate reader. • 13. Calculate the percentage of cell-growth inhibition using the next formula: % of control cell growth=100×(ODsample−mean ODday0)/(ODneg control−mean ODday0)
(§5) For GI50 determination, plot a dose-response curves between the compound concentration and percent of growth inhibition. GI50 values can be derived by fitting dose-response curves using sigmoidal dose response equation.

[2] = test system: NCIH23; assay: Test A: Cytostatic Cell Culture Assay (GI50), NCIH23; conditions: Homo sapiens, NCI-H23, 120 h; NCIH23 cells, 5 days, SRB; read-out: G150 Lung NCIH23
From the text: as §1, §2, §3, §4, §5

[3] = test system: Du145; assay: Test A: Cytostatic Cell Culture Assay (GI50), Du145; conditions: Homo sapiens, DU-145, 120 h; Du145 cells, 5 days, SRB; read-out: G150 Prostate Du145
From the text: as §1, §2, §3, §4, §5

[4] = test system: PC3; assay: Test A: Cytostatic Cell Culture Assay (GI50), PC3; conditions: Homo sapiens, PC-3, 120 h; PC3 cells, 5 days, SRB; read-out: G150 Prostate PC3
From the text: as §1, §2, §3, §4, §5

[5] = test system: HCT116; assay: Test A: Cytostatic Cell Culture Assay (GI50), HCT116; conditions: Homo sapiens, HCT-116, 120 h; HCT116 cells, 5 days, SRB; read-out: G150 Colon HCT116
From the text: as §1, §2, §3, §4, §5

[6] = test system: HCT15; assay: Test A: Cytostatic Cell Culture Assay (GI50), HCT15; conditions: Homo sapiens, HCT-15, 120 h; HCT15 cells, 5 days, SRB; read-out: G150 Colon HCT15
From the text: as §1, §2, §3, §4, §5

[7] = test system: Hs578; assay: Test A: Cytostatic Cell Culture Assay (GI50), Hs578; conditions: 120 h; Hs578 cells, 5 days, SRB; read-out: G150 Breast Hs578
From the text: as §1, §2, §3, §4, §5

Structure (SMILES)	IC50 [1]	IC50 [2]	IC50 [3]	IC50 [4]	IC50 [5]	IC50 [6]	IC50 [7]
OC[C@H]1O[C@@H](n2ccc3c(-c4cc[nH]c4)ncnc32)[C@H](O)[C@@H]1O [Example 14, 4-(1H-Pyrrol-3-yl)-7-(β-t-ribofuranosyl)-7H-pyrrolo[2,3-d]pyrimidine]	365 nM	2320 nM	30 nM	384 nM	500 nM	163 nM	442 nM
OC[C@H]1O[C@@H](n2cc(Cl)c3c(-c4ccoc4)ncnc32)[C@H](O)[C@@H]1O [Example 31, 5-Chloro-4-(furan-3-yl)-7-(β-D-ribofuranosyl)-7H-pyrrolo[2,3-d]pyrimidine]	1050 nM	5260 nM	54 nM	1200 nM	1960 nM	632 nM	1580 nM
OC[C@H]1O[C@@H](n2cc(F)c3c(-c4ccccc4)ncnc32)[C@H](O)[C@@H]1O [Example 19, 5-Fluoro-4-phenyl-7-(β-D-ribofuranosyl)-7H-pyrrolo[2,3-d]pyrimidine]	12900 nM	–	581 nM	–	> 20000 nM	–	19200 nM
OC[C@H]1O[C@@H](n2ccc3c(-c4nccs4)ncnc32)[C@H](O)[C@@H]1O [Example 8, 7-(β-D-Ribofuranosyl)-4-(thiazol-2-yl)-7H-pyrrolo[2,3-d]pyrimidine]	409 nM	4390 nM	19 nM	104 nM	484 nM	208 nM	294 nM
OC[C@H]1O[C@@H](n2ccc3c(Cc4ccccc4)ncnc32)[C@H](O)[C@@H]1O [Example 2, 4-Benzyl-7-(β-D-ribofuranosyl)-7H-pyrrolo[2,3-d]pyrimidine]	> 20000 nM	–	15700 nM	–	> 20000 nM	–	> 20000 nM
OC[C@H]1O[C@@H](n2cc(F)c3c(-c4nccs4)ncnc32)[C@H](O)[C@@H]1O [Example 25, 5-Fluoro-7-(β-D-ribofuranosyl)-4-(thiazol-2-yl)-7H-pyrrolo[2,3-d]pyrimidine]	902 nM	4980 nM	24 nM	175 nM	1260 nM	361 nM	566 nM
OC[C@H]1O[C@@H](n2cc(Cl)c3c(-c4ccco4)ncnc32)[C@H](O)[C@@H]1O [Example 29, 5-Chloro-4-(furan-2-yl)-7-(β-D-ribofuranosyl)-7H-pyrrolo[2,3-d]pyrimidine]	15200 nM	13200 nM	10000 nM	> 20000 nM	> 20000 nM	8150 nM	> 20000 nM
OC[C@H]1O[C@@H](n2cc(F)c3c(-c4ccc[nH]4)ncnc32)[C@H](O)[C@@H]1O [Example 22]	195 nM	2610 nM	9 nM	176 nM	453 nM	111 nM	315 nM
OC[C@H]1O[C@@H](n2cc(Cl)c3c(-c4ccsc4)ncnc32)[C@H](O)[C@@H]1O [Example 32, 5-Chloro-7-(β-D-ribofuranosyl)-4-(thiophen-3-yl)-7H-pyrrolo[2,3-d]pyrimidine]	378 nM	4540 nM	18 nM	118 nM	101 nM	148 nM	109 nM
OC[C@H]1O[C@@H](n2ccc3c(-c4ccsc4)ncnc32)[C@H](O)[C@@H]1O [Example 13, 7-(β-D-Ribofuranosyl)-4-(thiophen-3-yl)-7H-pyrrolo[2,3-d]pyrimidine]	627 nM	4240 nM	32 nM	92 nM	216 nM	98 nM	711 nM
OC[C@H]1O[C@@H](n2ccc3c(-c4ccc[se]4)ncnc32)[C@H](O)[C@@H]1O [Example 15, 7-(O-D-Ribofuranosyl)-4-(selenophen-2-yl)-7H-pyrrolo[2,3-d]pyrimidine]	230 nM	2520 nM	28 nM	12 nM	342 nM	5 nM	290 nM
OC[C@H]1O[C@@H](n2cc(Cl)c3c(-c4cccs4)ncnc32)[C@H](O)[C@@H]1O [Example 30, 5-Chloro-7-(β-D-ribofuranosyl)-4-(thiophen-2-yl)-7H-pyrrolo[2,3-d]pyrimidine]	375 nM	2020 nM	13 nM	35 nM	275 nM	81 nM	1640 nM
COc1ccc(-c2ncnc3c2ccn3[C@@H]2O[C@H](CO)[C@@H](O)[C@H]2O)cc1 [Example 3, 4-(4-Methoxyphenyl)-7-(β-D-ribofuranosyl)-7H-pyrrolo[2,3-d]pyrimidine]	> 20000 nM	–	1310 nM	–	> 20000 nM	–	> 20000 nM
OC[C@H]1O[C@@H](n2ccc3c(-c4ccn[nH]4)ncnc32)[C@H](O)[C@@H]1O [Example 16]	3250 nM	3230 nM	409 nM	560 nM	7310 nM	1060 nM	3940 nM
OC[C@H]1O[C@@H](n2ccc3c(-c4ccc(F)cc4)ncnc32)[C@H](O)[C@@H]1O [Example 4, 4-(4-Fluorophenyl)-7-(β-D-ribofuranosyl)-7H-pyrrolo[2,3-d]pyrimidine]	> 20000 nM	–	729 nM	–	> 20000 nM	–	2520 nM
CCc1ncnc2c1ccn2[C@@H]1O[C@H](CO)[C@@H](O)[C@H]1O [Example 1, 4-Ethyl-7-(β-D-ribofuranosyl)-7H-pyrrolo[2,3-d]pyrimidine]	4400 nM	–	1240 nM	–	2560 nM	–	4680 nM
OCc1ncnc2c1ccn2[C@@H]1O[C@H](CO)[C@@H](O)[C@H]1O [Example 11, 4-Hydroxymethyl-7-(β-D-ribofuranosyl)-7H-pyrrolo[2,3-d]pyrimidine]	252 nM	28 nM	30 nM	52 nM	447 nM	30 nM	53 nM
OC[C@H]1O[C@@H](n2ccc3c(-c4ccc[nH]4)ncnc32)[C@H](O)[C@@H]1O [Example 7, 4-(1H-Pyrrol-2-yl)-7-(β-D-ribofuranosyl)-7H-pyrrolo[2,3-d]pyrimidine]	> 20000 nM	2500 nM	630 nM	1280 nM	> 20000 nM	2440 nM	1280 nM
OC[C@H]1O[C@@H](n2cc(F)c3c(-c4ccsc4)ncnc32)[C@H](O)[C@@H]1O [Example 24, 5-Fluoro-7-(β-D-ribofuranosyl)-4-(thiophen-3-yl)-7H-pyrrolo[2,3-d]pyrimidine]	379 nM	2950 nM	66 nM	105 nM	145 nM	179 nM	813 nM
OC[C@H]1O[C@@H](n2ccc3c(-c4ccccn4)ncnc32)[C@H](O)[C@@H]1O [Example 18, 4-(Pyridin-2-yl)-7-(β-D-ribofuranosyl)-7H-pyrrolo[2,3-d]pyrimidine]	4860 nM	–	387 nM	–	> 20000 nM	–	> 20000 nM
